Legend:
[1] = biological target: T1, wt human TYK2, catalytic site (Homo sapiens, UniProt P29597); assay: HTRF KinEASE assay, TYK2; assay type: biochemical; conditions: 1 μM ATP; read-out: IC50, inhibitory activity toward TYK2
T1 construct: 2 nM wt human TYK2, catalytic site (SignalChem/CAN); purchased SignalChem/CAN
T1 sequence (P29597 897-1176 limits assumed): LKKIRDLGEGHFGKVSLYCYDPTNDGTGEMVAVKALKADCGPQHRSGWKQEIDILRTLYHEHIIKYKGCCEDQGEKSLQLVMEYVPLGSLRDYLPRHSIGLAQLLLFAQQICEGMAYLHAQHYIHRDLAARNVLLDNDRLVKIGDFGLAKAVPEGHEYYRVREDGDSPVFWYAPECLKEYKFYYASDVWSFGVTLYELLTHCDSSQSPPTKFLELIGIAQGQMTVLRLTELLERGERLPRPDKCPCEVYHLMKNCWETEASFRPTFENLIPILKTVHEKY
Experimental: Basic protocol for HTRF KinEASE assay (Cisbio/FRA) inhibitor studies involved two steps: Enzymatic step: Addition of 4 μl of test compound in corresponding DMSO dilutions, 4 μl of kinase/substrate mixture, 2 μl of ATP into 384 well small volume plates. Incubation for at least 30 minutes at room temperature.
Detection step: Addition of 5 μl antibody and 5 μl streptavidin-XL665, read plate after 60 minutes. Data analysis of emission ratios according to KinEASE assay protocol.
Kinase and assay components were adjusted to final concentrations according to the kit protocol. For TYK2: 2 nM wt human TYK2, catalytic site (SignalChem/CAN), 1 μM HTRF KinEASE-TK Substrate-biotin, 1 μM ATP in 1× Kinase Buffer

[2] = biological target: T2, wt human NUAK1, full length (Homo sapiens, UniProt O60285); assay: TR-FRET LanthaScreen Eu Kinase Binding Assay, NUAK1; conditions: 5 nM Kinase Tracer 236; read-out: IC50, inhibitory activity toward NUAK1
T2 construct: 8 nM wt human NUAK1, full length (ThermoFisher/USA); purchased ThermoFisher/USA
T2 sequence (O60285 1-661): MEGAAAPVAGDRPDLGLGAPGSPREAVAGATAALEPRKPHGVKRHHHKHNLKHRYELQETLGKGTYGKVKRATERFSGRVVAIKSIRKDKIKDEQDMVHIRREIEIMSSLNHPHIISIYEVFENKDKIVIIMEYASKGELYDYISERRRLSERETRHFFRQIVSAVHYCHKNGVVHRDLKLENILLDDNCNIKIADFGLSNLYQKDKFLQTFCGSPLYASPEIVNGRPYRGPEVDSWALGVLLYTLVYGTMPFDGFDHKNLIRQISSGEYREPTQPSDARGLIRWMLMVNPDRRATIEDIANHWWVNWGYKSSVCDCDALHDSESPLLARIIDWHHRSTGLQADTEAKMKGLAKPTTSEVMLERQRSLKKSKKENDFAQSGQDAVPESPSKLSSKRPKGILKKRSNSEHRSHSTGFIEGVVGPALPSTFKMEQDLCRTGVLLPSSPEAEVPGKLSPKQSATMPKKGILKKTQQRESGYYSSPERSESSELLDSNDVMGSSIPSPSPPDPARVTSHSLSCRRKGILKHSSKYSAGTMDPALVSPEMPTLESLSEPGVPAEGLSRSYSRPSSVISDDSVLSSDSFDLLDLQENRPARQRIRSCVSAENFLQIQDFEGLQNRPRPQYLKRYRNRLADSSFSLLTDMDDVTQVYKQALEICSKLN
Experimental: The basic protocol for TR-FRET LanthaScreen Eu Kinase Binding Assay inhibitor studies were performed as follows. LanthaScreen Kinase Binding Assays (ThermoFisher/USA) to evaluate inhibitors were performed by addition of 5 μl of test compound in corresponding DMSO dilutions/5 μl of kinase/antibody mixture, 5 μl of tracer into 384 well small volume plates. After incubation for 1 hour at room temperature, plates were read. Data analysis of emission ratios was according to LanthaScreen Eu Kinase Binding Assay protocol.
Kinase and assay components were adjusted to final concentrations according to the kit protocol. For LRRK2: 5 nM wt human LRRK2, catalytic site, or G2019S human LRRK2, catalytic site (ThermoFisher/USA), 2 nM Eu-Anti-GST Antibody, 10 nM Kinase Tracer 236 in 1× Kinase Buffer A. For NUAK1: 8 nM wt human NUAK1, full length (ThermoFisher/USA), 2 nM Eu-Anti-His Antibody, 5 nM Kinase Tracer 236 in 1× Kinase Buffer A.

Row | Structure (SMILES) | IC50 [1] [nM] | IC50 [2] [nM]
1 | Fc1ccc2c(c1)-c1[nH]ncc1N=C(c1c(F)cccc1F)N2 [Compound 33, 5-(2,6-difluorophenyl)-9-fluoro-1,6-dihydrobenzo[d]pyrazolo[3,4-f][1,3]diazepine] | 10 to 100 | 10 to 100
2 | CC(C)Oc1cc2c(cc1F)-c1n[nH]cc1N=C(c1c(F)cccc1Cl)N2 [Compound 235, 5-(2-chloro-6-fluorophenyl)-9-fluoro-8-isopropoxy-2,6-dihydrobenzo[d]pyrazolo[3,4-f][1,3]diazepine] | 10 to 100 | 10 to 100
3 | Fc1cccc(F)c1C1=Nc2cn[nH]c2-c2ccccc2N1 [Compound 8, 5-(2,6-difluorophenyl)-1,6-dihydrobenzo[d]pyrazolo[3,4-f][1,3]diazepine] | 10 to 100 | 100 to 1000
4 | Fc1cccc(F)c1C1=Nc2ncccc2-c2[nH]ncc2N1 [Compound 11, 5-(2,6-difluorophenyl)-1,4-dihydropyrazolo[4,3-d]pyrido[3,2-f][1,3]diazepine] | 100 to 1000 | 10 to 100
5 | Fc1cccc(F)c1C1=Nc2cn[nH]c2-c2cc3c(cc2N1)OCO3 [Compound 210, 5-(2,6-difluorophenyl)-1,6-dihydro-[1,3]dioxolo[4′,5′:4,5]benzo[1,2-d]pyrazolo[3,4-f][1,3]diazepine] | 10 to 100 | 10 to 100
6 | Fc1cc(F)c(C2=Nc3cn[nH]c3-c3cc(F)ccc3N2)c(F)c1 [Compound 203, 9-fluoro-5-(2,4,6-trifluorophenyl)-1,6-dihydrobenzo[d]pyrazolo[3,4-f][1,3]diazepine] | 100 to 1000 | 10 to 100
7 | Fc1cccc(F)c1C1=Nc2cn[nH]c2-c2[nH]ncc2N1 [Compound 66, 5-(2,6-difluorophenyl)-4,9-dihydro-1H-dipyrazolo[4,3-d:3′,4′-f][1,3]diazepine] | 10 to 100 | –
8 | Cc1cc(F)c2c(c1)-c1[nH]nc(Cl)c1NC(c1c(F)cccc1F)=N2 [Compound 166, 3-chloro-5-(2,6-difluorophenyl)-7-fluoro-9-methyl-1,4-dihydrobenzo[d]pyrazolo[3,4-f][1,3]diazepine] | 100 to 1000 | 10 to 100
9 | Fc1cc2c(cc1-c1cccnn1)N=C(c1c(F)cccc1F)Nc1c[nH]nc1-2 [Compound 225, 5-(2,6-difluorophenyl)-9-fluoro-8-(pyridazin-3-yl)-2,4-dihydrobenzo[d]pyrazolo[3,4-f][1,3]diazepine] | 10 to 100 | 10 to 100
10 | O=C(NCCF)c1cc2c(cc1F)-c1n[nH]cc1N=C(c1c(F)cccc1F)N2 [Compound 216, 5-(2,6-difluorophenyl)-9-fluoro-N-(2-fluoroethyl)-2,6-dihydrobenzo[d]pyrazolo[3,4-f][1,3]diazepine-8-carboxamide] | 10 to 100 | 10 to 100
11 | Fc1ccc2c(c1)-c1[nH]ncc1N=C(c1c(F)cccc1Cl)N2 [Compound 34, 5-(2-chloro-6-fluorophenyl)-9-fluoro-1,6-dihydrobenzo[d]pyrazolo[3,4-f][1,3]diazepine] | 10 to 100 | 10 to 100
12 | NC(=O)c1ccc2c(c1)N=C(c1c(F)cccc1F)Nc1cn[nH]c1-2 [Compound 81, 5-(2,6-difluorophenyl)-1,4-dihydrobenzo[d]pyrazolo[3,4-f][1,3]diazepine-8-carboxamide] | < 10 | –
13 | COc1cccc(F)c1C1=Nc2cn[nH]c2-c2cccnc2N1 [Compound 119] | 100 to 1000 | –
14 | O=[N+]([O-])c1ccc(F)c(C2=Nc3cn[nH]c3-c3ccccc3N2)c1F [Compound 107, 5-(2,6-difluoro-3-nitrophenyl)-1,6-dihydrobenzo[d]pyrazolo[3,4-f][1,3]diazepine] | 100 to 1000 | –
15 | CCC(CC)Oc1cc2c(cc1F)-c1n[nH]cc1N=C(c1c(F)cccc1Cl)N2 [Compound 232, 5-(2-chloro-6-fluorophenyl)-9-fluoro-8-(pentan-3-yloxy)-2,6-dihydrobenzo[d]pyrazolo[3,4-f][1,3]diazepine] | 10 to 100 | –
16 | O=C(c1ccc2c(c1)N=C(c1c(Cl)cccc1Cl)Nc1cn[nH]c1-2)N1CCOCC1 [Compound 79, (5-(2,6-dichlorophenyl)-1,4-dihydrobenzo[d]pyrazolo[3,4-f][1,3]diazepin-8-yl)(morpholino)methanone] | 100 to 1000 | –
17 | Fc1cc2c(cc1OC1CCOCC1)N=C(c1c(Cl)cccc1C(F)(F)F)Nc1c[nH]nc1-2 [Compound 224, 5-(2-chloro-6-(trifluoromethyl)phenyl)-9-fluoro-8-((tetrahydro-2H-pyran-4-yl)oxy)-2,4-dihydrobenzo[d]pyrazolo[3,4-f][1,3]diazepine] | 10 to 100 | –
18 | Fc1cccc(I)c1C1=Nc2ccccc2-c2[nH]ncc2N1 [Compound 111, 5-(2-fluoro-6-iodophenyl)-1,4-dihydrobenzo[d]pyrazolo[3,4-f][1,3]diazepine] | 100 to 1000 | –
19 | Fc1cccc(Cl)c1C1=Nc2ncccc2-c2[nH]ncc2N1 [Compound 30, 5-(2-chloro-6-fluorophenyl)-1,4-dihydropyrazolo[4,3-d]pyrido[3,2-f][1,3]diazepine] | 10 to 100 | –
20 | Fc1cc2c(cc1Oc1ccccc1)N=C(c1c(F)cccc1Cl)Nc1c[nH]nc1-2 [Compound 244, 5-(2-chloro-6-fluorophenyl)-9-fluoro-8-phenoxy-2,4-dihydrobenzo[d]pyrazolo[3,4-f][1,3]diazepine] | 100 to 1000 | –
21 | Fc1ccc2c(c1F)N=C(c1c(F)cccc1F)Nc1cn[nH]c1-2 [Compound 170, 5-(2,6-difluorophenyl)-7,8-difluoro-1,4-dihydrobenzo[d]pyrazolo[3,4-f][1,3]diazepine] | 100 to 1000 | –
22 | O=C(c1ccc2c(c1)N=C(c1c(F)cccc1F)Nc1cn[nH]c1-2)N1CCOCC1 [Compound 56, (5-(2,6-difluorophenyl)-1,4-dihydrobenzo[d]pyrazolo[3,4-f][1,3]diazepin-8-yl)(morpholino)methanone] | 100 to 1000 | –
23 | O=[N+]([O-])c1cccc(F)c1C1=Nc2cn[nH]c2-c2ccccc2N1 [Compound 106, 5-(2-fluoro-6-nitrophenyl)-1,6-dihydrobenzo[d]pyrazolo[3,4-f][1,3]diazepine] | 100 to 1000 | –
24 | Fc1cccc(F)c1C1=Nc2cn[nH]c2-c2cn(C3CCOCC3)nc2N1 [Compound 60, 5-(2,6-difluorophenyl)-8-(tetrahydro-2H-pyran-4-yl)-6,8-dihydro-1H-dipyrazolo[3,4-d:3′,4′-f][1,3]diazepine] | 100 to 1000 | –
25 | CC[C@@H](C)Oc1cc2c(cc1F)-c1n[nH]cc1N=C(c1c(F)cccc1Cl)N2 [Compound 248, (R)-8-(sec-butoxy)-5-(2-chloro-6-fluorophenyl)-9-fluoro-2,6-dihydrobenzo[d]pyrazolo[3,4-f][1,3]diazepine] | 10 to 100 | –
26 | O=[N+]([O-])c1cccc(F)c1C1=Nc2cn[nH]c2-c2cccnc2N1 [Compound 108, 5-(2-fluoro-6-nitrophenyl)-1,6-dihydropyrazolo[4,3-d]pyrido[3,2-f][1,3]diazepine] | 100 to 1000 | –
27 | O=C(NC1CCOCC1)c1cc2c(cc1Cl)-c1n[nH]cc1N=C(c1c(F)cccc1F)N2 [Compound 199, 9-chloro-5-(2,6-difluorophenyl)-N-(tetrahydro-2H-pyran-4-yl)-2,6-dihydrobenzo[d]pyrazolo[3,4-f][1,3]diazepine-8-carboxamide] | 100 to 1000 | –
28 | CSc1n[nH]c2c1NC(c1c(F)cccc1F)=Nc1ccc(C)cc1-2 [Compound 145, 5-(2,6-difluorophenyl)-9-methyl-3-(methylthio)-1,4-dihydrobenzo[d]pyrazolo[3,4-f][1,3]diazepine] | – | 100 to 1000

From US20220380374A1, “1,4-DIHYDROBENZO[D]PYRAZOLO[3,4-F][1,3]DIAZEPINE DERIVATIVES AND RELATED COMPOUNDS AS LRRK2, NUAK1 AND/OR TYK2 KINASE MODULATORS FOR THE TREATMENT OF E.G. AUTOIMMUNE DISEASE” (Origenis GMBH, priority 2019, published 2022)
